Test results from patent US20260297092A1, “PYRAZOLOPYRIMIDINE DERIVATIVES AS INHIBITORS OF NLRP3” (Takeda Pharmaceutical Company Limited, priority 2023, published 2026).
pIC50: −log10 of the molar value.

Columns and labels:
[1] = system: NLRP3 inflammasome (IL-1β production in THP-1 cells); assay: IL-1β TR-FRET Assay (percentage of inhibition at 300 nM, 6 μM or 10 μM); assay type: cell-based, human; conditions: Homo sapiens, LPS priming, ATP activation; for inhibition at 6 µM: THP-1, 6 μM, read-out: IL-1β inhibitory rate at 6 μM (%); for inhibition at 0.3 µM: THP-1, 300 nM, read-out: IL-1β inhibitory rate at 300 nM (%)
In short: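 THP-1 cells were differentiated with 25 ng/mL IFN-γ for 24 h, primed with 50 ng/mL LPS in serum-free medium for 24 h, then given compound for 30 min before 20 mM ATP for 2 h. Supernatant IL-1β was measured by HTRF after 16-24 h at room temperature. Inhibition was normalized between DMSO (high) and 3 μM MCC-950 (low).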

[2] = system: TNF-α (NF-κB pathway, THP-1 cells); assay: TNF-α Assay (IC50); assay type: cell-based, human; conditions: Homo sapiens, 600 ng/mL LPS, 3 hours
In short: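 THP-1 cells differentiated to macrophages with 25 ng/mL IFN for 24 h, plated 40,000/well in serum-free medium, preincubated with compounds 30 min at 37 °C, then stimulated with 600 ng/mL LPS for 3 h. Supernatant TNF-α measured by ELISA; IC50 from four-parameter logistic fit, 100% inhibition defined by TPCA-1.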

Row | pIC50 [2] | SMILES | inhibition at 6 µM [1] | inhibition at 0.3 µM [1]
1 | < 4.52 | COc1nc2nn(-c3c(C)cc(C4CC4)cc3CC(F)(F)F)cc2c(=O)[nH]1 [Example 230, 2-[4-cyclopropyl-2-methyl-6-(2,2,2-trifluoroethyl)phenyl]-6-methoxy-2,5-dihydro-4H-pyrazolo[3,4-d]pyrimidin-4-one] | 93% | 
2 | < 4.52 | CCOc1nc2nn(-c3c(C)cc(C4CC4)cc3OC(F)F)cc2c(=O)[nH]1 [Example 222, 2-[4-cyclopropyl-2-(difluoromethoxy)-6-methylphenyl]-6-ethoxy-2,5-dihydro-4H-pyrazolo[3,4-d]pyrimidin-4-one] |  | 98%
3 | < 4.52 | COCCOc1nc2nn(-c3c(C)cc(Br)cc3C(F)F)cc2c(=O)[nH]1 [Example 215, 2-[4-bromo-2-(difluoromethyl)-6-methylphenyl]-6-(2-methoxyethoxy)-2,5-dihydro-4H-pyrazolo[3,4-d]pyrimidin-4-one] |  | 105%
4 | < 4.52 | Cc1ccc(-n2cc3c(=O)[nH]c(OC4CCOCC4)nc3n2)c(C)c1 [Example 176, 2-(2,4-dimethylphenyl)-6-[(oxan-4-yl)oxy]-2,5-dihydro-4H-pyrazolo[3,4-d]pyrimidin-4-one] |  | 101%
5 | < 4.52 | Cc1cc(C)c(-n2cc3c(=O)[nH]c(C4CC4)nc3n2)c(O)c1 [Example 6, 6-cyclopropyl-2-(2-hydroxy-4,6-dimethylphenyl)-2,5-dihydro-4H-pyrazolo[3,4-d]pyrimidin-4-one] |  | 98%
6 | < 4.52 | CCOc1nc2nn(-c3c(C)cc(OC(F)F)nc3C)cc2c(=O)[nH]1 [Example 226, 2-[6-(difluoromethoxy)-2,4-dimethylpyridin-3-yl]-6-ethoxy-2,5-dihydro-4H-pyrazolo[3,4-d]pyrimidin-4-one] | 106% | 
7 | < 4.52 | CCOc1nc2nn(-c3ccc(C)cc3O)cc2c(=O)[nH]1 [Example 56, 6-ethoxy-2-(2-hydroxy-4-methylphenyl)-2,5-dihydro-4H-pyrazolo[3,4-d]pyrimidin-4-one] |  | 100%
8 | < 4.52 | Cc1cc(C2CC2)cc(C)c1-n1cc2c(=O)[nH]c(CC(F)(F)F)nc2n1 [Example 211, 2-(4-cyclopropyl-2,6-dimethylphenyl)-6-(2,2,2-trifluoroethyl)-2,5-dihydro-4H-pyrazolo[3,4-d]pyrimidin-4-one] |  | 107%
9 | < 4.52 | Cc1cc(C)c(-n2cc3c(=O)[nH]c(-c4ccncn4)nc3n2)c(O)c1 [Example 2, 2-(2-hydroxy-4,6-dimethylphenyl)-6-(pyrimidin-4-yl)-2,5-dihydro-4H-pyrazolo[3,4-d]pyrimidin-4-one] |  | 100%
10 | < 4.52 | Cc1cc(C2CC2)cc(C)c1-n1cc2c(=O)[nH]c(COC(F)F)nc2n1 [Example 224, 2-(4-cyclopropyl-2,6-dimethylphenyl)-6-[(difluoromethoxy)methyl]-2,5-dihydro-4H-pyrazolo[3,4-d]pyrimidin-4-one] |  | 104%
11 | < 4.52 | Cc1cc(C2CC2)cc(C)c1-n1cc2c(=O)[nH]c(COC(F)(F)F)nc2n1 [Example 202, 2-(4-cyclopropyl-2,6-dimethylphenyl)-6-[(trifluoro-methoxy)methyl]-2,5-dihydro-4H-pyrazolo[3,4-d]pyrimidin-4-one] |  | 97%
12 | < 4.52 | Cc1ccc(-n2cc3c(=O)[nH]c(OCC(C)O)nc3n2)c(C)c1 (racemic) [Example 89, 2-(2,4-dimethylphenyl)-6-(2-hydroxypropoxy)-2,5-dihydro-4H-pyrazolo[3,4-d]pyrimidin-4-one] |  | 79%
13 | 5.77 | Cc1cc(C)c(-n2cc3c(=O)[nH]c(C(C)(C)C)nc3n2)c(O)c1 [Example 71, 6-tert-butyl-2-(2-hydroxy-4,6-dimethylphenyl)-2,5-dihydro-4H-pyrazolo[3,4-d]pyrimidin-4-one] |  | 96%
14 | < 4.52 | Cc1cc(C2CC2)cc(C)c1-n1cc2c(=O)[nH]c(C3CCOCC3)nc2n1 [Example 198, 2-(4-cyclopropyl-2,6-dimethylphenyl)-6-(oxan-4-yl)-2,5-dihydro-4H-pyrazolo[3,4-d]pyrimidin-4-one] |  | 95%
15 | < 4.52 | CCOc1nc2nn(-c3c(C)cc(CC)cc3F)cc2c(=O)[nH]1 [Example 122, 6-ethoxy-2-(4-ethyl-2-fluoro-6-methylphenyl)-2,5-dihydro-4H-pyrazolo[3,4-d]pyrimidin-4-one] |  | 99%
16 | < 4.52 | CCOc1nc2nn(-c3ccc(C)cc3C)cc2c(=O)[nH]1 [Example 82, 2-(2,4-dimethylphenyl)-6-ethoxy-2,5-dihydro-4H-pyrazolo[3,4-d]pyrimidin-4-one] |  | 98%

Row | pIC50 [2] | SMILES | inhibition at 6 µM [1] | inhibition at 0.3 µM [1]
17 | < 4.52 | CCOc1nc2nn(-c3ccc(C(F)(F)F)cc3C)cc2c(=O)[nH]1 [Example 69, 6-ethoxy-2-[2-methyl-4-(trifluoromethyl)phenyl]-2,5-dihydro-4H-pyrazolo[3,4-d]pyrimidin-4-one] |  | 100%
18 | < 4.52 | CCOc1nc2nn(-c3c(F)cc(C)cc3OC(F)F)cc2c(=O)[nH]1 [Example 108] |  | 98%
19 | < 4.52 | CCOCc1nc2nn(-c3c(C)cc(C)cc3O)cc2c(=O)[nH]1 [Example 46, 6-(ethoxymethyl)-2-(2-hydroxy-4,6-dimethylphenyl)-2,5-dihydro-4H-pyrazolo[3,4-d]pyrimidin-4-one] |  | 95%
20 | < 4.52 | COCCn1ccc(-c2nc3nn(-c4c(C)cc(C5CC5)cc4C)cc3c(=O)[nH]2)n1 [Example 278, 2-(4-cyclopropyl-2,6-dimethylphenyl)-6-[1-(2-methoxyethyl)-1H-pyrazol-3-yl]-2,5-dihydro-4H-pyrazolo[3,4-d]pyrimidin-4-one] | 95% | 
21 | < 4.52 | Cc1cc(C)c(-n2cc3c(=O)[nH]c(C)nc3n2)c(O)c1 [Example 74, 2-(2-hydroxy-4,6-dimethylphenyl)-6-methyl-2,5-dihydro-4H-pyrazolo[3,4-d]pyrimidin-4-one] |  | 99%
22 | < 4.52 | CCOc1nc2nn(-c3c(F)cc(C4CC4)cc3C(F)(F)F)cc2c(=O)[nH]1 [Example 117, 2-[4-cyclopropyl-2-fluoro-6-(trifluoromethyl)phenyl]-6-ethoxy-2,5-dihydro-4H-pyrazolo[3,4-d]pyrimidin-4-one] |  | 100%
23 | < 4.52 | CCOc1nc2nn(-c3c(F)cc(C(F)(F)F)cc3Br)cc2c(=O)[nH]1 [Example 54, 2-[2-bromo-6-fluoro-4-(trifluoromethyl)phenyl]-6-ethoxy-2,5-dihydro-4H-pyrazolo[3,4-d]pyrimidin-4-one] |  | 100%
24 | < 4.52 | COc1nc2nn(-c3c(C)cc(C4CC4)cc3C)cc2c(=O)[nH]1 [Example 146, 2-(4-cyclopropyl-2,6-dimethylphenyl)-6-methoxy-2,5-dihydro-4H-pyrazolo[3,4-d]pyrimidin-4-one] |  | 94%
25 | < 4.52 | CCOc1nc2nn(-c3c(F)cc(C4CC4)cc3Cl)cc2c(=O)[nH]1 [Example 137, 2-(2-chloro-4-cyclopropyl-6-fluorophenyl)-6-ethoxy-2,5-dihydro-4H-pyrazolo[3,4-d]pyrimidin-4-one] |  | 98%
26 | < 4.52 | Cc1cc(C2CC2)cc(C)c1-n1cc2c(=O)[nH]c([C@@]3(F)CCOC3)nc2n1 [Example 247, 2-(4-cyclopropyl-2,6-dimethylphenyl)-6-(3-fluorooxolan-3-yl)-2,5-dihydro-4H-pyrazolo[3,4-d]pyrimidin-4-one] | 100% | 
27 | < 4.52 | Cc1cc(C2CC2)cc(C)c1-n1cc2c(=O)[nH]c(C3CC3)nc2n1 [Example 167, 6-cyclopropyl-2-(4-cyclopropyl-2,6-dimethylphenyl)-2,5-dihydro-4H-pyrazolo[3,4-d]pyrimidin-4-one] |  | 98%
28 | < 4.52 | CCOc1nc2nn(-c3c(O)cc(C)cc3F)c(C)c2c(=O)[nH]1 [Example 51, 6-ethoxy-2-(2-fluoro-6-hydroxy-4-methylphenyl)-3-methyl-2,5-dihydro-4H-pyrazolo[3,4-d]pyrimidin-4-one] |  | 100%
29 | < 4.52 | Cc1cc(C)c(-n2cc3c(=O)[nH]c(CC4CCCCO4)nc3n2)c(O)c1 (stereo not shown) [Example 67, 2-(2-hydroxy-4,6-dimethylphenyl)-6-[(oxan-2-yl)methyl]-2,5-dihydro-4H-pyrazolo[3,4-d]pyrimidin-4-one] |  | 98%
30 | < 4.52 | Cc1cc(C)c(-n2cc3c(=O)[nH]c(-c4ccccc4)nc3n2)c(O)c1 [Example 5, 2-(2-hydroxy-4,6-dimethylphenyl)-6-phenyl-2,5-dihydro-4H-pyrazolo[3,4-d]pyrimidin-4-one] |  | 99%
31 | < 4.52 | COc1nc2nn(-c3c(C)cc(C)cc3O)cc2c(=O)[nH]1 [Example 3, 2-(2-hydroxy-4,6-dimethylphenyl)-6-methoxy-2,5-dihydro-4H-pyrazolo[3,4-d]pyrimidin-4-one] |  | 94%
32 | < 4.52 | COCCc1nc2nn(-c3c(F)cc(C4CC4)cc3C(F)F)cc2c(=O)[nH]1 [Example 300, 2-[4-cyclopropyl-2-(difluoromethyl)-6-fluorophenyl]-6-(2-methoxyethyl)-2,5-dihydro-4H-pyrazolo[3,4-d]pyrimidin-4-one] | 99% | 
